Test results taken from patent US12102643B2, “Aqueous pharmaceutical formulation of hydrocortisone sodium phosphate and monothioglycerol” (ANTARES PHARMA, INC., priority 2022, dated 2024).

What was measured:
[1] = Room temperature stability of crystalline as compared to amorphous drug substance (water content, Karl Fischer); assay type: physicochemical; conditions: for Assay / Total Impurities: Room temperature
Description: The Drug Substance (DS) Hydrocortisone Sodium Phosphate (HSP) is a sodium salt of phosphate ester of hydrocortisone. The high-water solubility of HSP enables the development of aqueous injectable solutions. The DS meets the requirements of USP monograph, “Hydrocortisone sodium phosphate, USP,” except for loss on drying (LOD) specification, instead the Karl Fischer method is used to test water content which meets the British Pharmacopoeia specification. This is because the crystalline form obtained through the manufacturing process is a crystalline hydrate. To meet the USP LOD specification of NMT 5%, the manufacturing process would need to involve a lyophilization step which leads to the formation of an amorphous form of HSP. […] The water content test method utilizes the British Pharmacopoiea (BP) HSP monograph semi-micro water content method instead of the less specific USP HSP monograph water content Loss on Drying method. […]

[2] = Genotoxicity assessment (ICH M7)
[3] = Stability study of HCP prototype formulations in PFS at 25° C. and 40° C. (appearance, pH, assay and related substances by stability indicating HPLC); conditions: accelerated storage 40° C., effect of pH
[4] = Forced degradation of hydrocortisone sodium phosphate API under stress conditions (0.1 N HCl, 0.1 N NaOH, dry heat); assay type: physicochemical; conditions: 3 stress conditions: 0.1 N HCl, qualitative
Procedure: To develop this method, Hydrocortisone sodium phosphate API was kept under stress conditions. These stress conditions included treatment with 0.1 N HCl, 0.1 N NaOH and dry heat. This was performed to investigate the nature of API and its compatibility with the stress conditions. It also helped generate degradation products to assess the specificity of the HPLC method under development. Information on degradation products and the conditions used to generate them was used to optimize the method for better resolution of such degradation products on chromatogram. FIGS. 3A-3C show chromatograms of HCP under stress conditions.
The proportions in which the degradants formed depended on the stress condition. Stress studies performed on the API were done for qualitative purpose only.

Molecule | Assay ([1]; Time 0) | Total Impurities ([1]; Time 0) | Assay ([1]; Time 3 mo.) | Total Impurities ([1]; Time 3 mo.) | Assay ([1]; Time 6 mo.) | Total Impurities ([1]; Time 6 mo.) | further results
C[C@]12CCC(=O)C=C1CC[C@@H]1[C@@H]2[C@@H](O)C[C@@]2(C)[C@H]1CC[C@]2(O)C(=O)COP(=O)([O-])[O-].[Na+].[Na+] | 97.8% | 0.20% | 99.0% | 1.1% | 96.5% | 1.5% | 
C[C@]12CCC(=O)C=C1CC[C@@H]1[C@@H]2[C@@H](O)C[C@@]2(C)[C@H]1CC[C@]2(O)C(=O)COP(=O)(O)O [Hydrocortisone Sodium Phosphate] | 100.9% | 0.00% | 101.4% | 0.06% | 99.5% | 0.00% | 
C[C@]12CCC(=O)C=C1CC[C@@H]1[C@@H]2[C@@H](O)C[C@@]2(C)[C@H]1CC[C@]2(O)C(=O)COP(=O)(O)O [Hydrocortisone sodium phosphate] |  |  |  |  |  |  | genotoxicity assessment [2]: not a genotoxic product; susceptibility to hydrolysis [3]: prone to general acid-catalyzed hydrolysis at pH<7.5
C[C@]12CCC(=O)C=C1CC[C@@H]1[C@@H]2[C@@H](O)C[C@@]2(C)[C@H]1CC[C@]2(O)C(=O)COP(=O)(O)O [hydrocortisone sodium phosphate] |  |  |  |  |  |  | hygroscopicity ([1]; room temperature): highly hygroscopic; stability compared to crystalline form ([1]; room temperature): not stable as compared to crystalline form
Hydrocortisone sodium phosphate |  |  |  |  |  |  | forced degradation outcome [4]: formation of Hydrocortisone, other common degradants
